Measured values as given in PMC4156869 (Journal of the American Chemical Society, 2014).

Target: T1, GalK2 (N-acetyl-galactosamine kinase) (Homo sapiens, UniProt Q01415)
T1 sequence (Q01415 1-458): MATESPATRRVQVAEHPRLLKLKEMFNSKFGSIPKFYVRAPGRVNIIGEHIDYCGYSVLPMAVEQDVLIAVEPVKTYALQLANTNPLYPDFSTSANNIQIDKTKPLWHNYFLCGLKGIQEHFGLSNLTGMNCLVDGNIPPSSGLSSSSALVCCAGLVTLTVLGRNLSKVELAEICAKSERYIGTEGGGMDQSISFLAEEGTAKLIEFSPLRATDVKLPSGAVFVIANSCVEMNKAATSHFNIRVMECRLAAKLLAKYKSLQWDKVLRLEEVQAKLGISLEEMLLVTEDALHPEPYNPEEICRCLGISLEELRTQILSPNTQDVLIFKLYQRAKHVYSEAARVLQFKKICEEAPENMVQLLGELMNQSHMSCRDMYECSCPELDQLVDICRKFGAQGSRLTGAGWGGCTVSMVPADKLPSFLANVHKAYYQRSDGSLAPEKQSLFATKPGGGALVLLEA
Experiment: […]gamma-ATP phosphorylation, Dowex column, scintillation counting
Assay type: biochemical
Conditions: 40 mM sugar, 5 mM ATP, 10 mM MgCl2, 50 mM Tris HCl pH 8.0, 37 °C

SMILES	[32P]gamma-ATP phosphorylation, Dowex column, scintillation counting
CC(=O)N[C@H]1C(O)O[C@H](CO)[C@H](O)[C@@H]1O (some centres unmarked) [GalNAc]	GalK2 readily phosphorylated both GalNAc and GlcNAc
CC(=O)N[C@H]1C(O)O[C@H](CO)[C@@H](O)[C@@H]1O (some centres unmarked) [GlcNAc]	GalK2 readily phosphorylated both GalNAc and GlcNAc
